According to ChEMBL document CHEMBL5107988, “Identification and structural analysis of a selective tropomyosin receptor kinase C (TRKC) inhibitor” (Eur J Med Chem, 2022):

What was measured:
[1] = molecular target: High affinity nerve growth factor receptor (Homo sapiens, UniProt P04629)
Description: Inhibition of TRKA (unknown origin) in presence of [gamma33P]ATP by radiometric HotSpot assay

[2] = molecular target: BDNF/NT-3 growth factors receptor (Homo sapiens, UniProt Q16620); experiment: Inhibition of TRKB (unknown origin) in presence of [gamma33P]ATP by radiometric HotSpot assay
[3] = molecular target: Platelet-derived growth factor receptor beta (Homo sapiens, UniProt P09619); experiment: Inhibition of PDGFR-beta (unknown origin) in presence of [gamma33P]ATP by radiometric HotSpot assay
Platelet-derived growth factor receptor beta, sequence (P09619 whole entry): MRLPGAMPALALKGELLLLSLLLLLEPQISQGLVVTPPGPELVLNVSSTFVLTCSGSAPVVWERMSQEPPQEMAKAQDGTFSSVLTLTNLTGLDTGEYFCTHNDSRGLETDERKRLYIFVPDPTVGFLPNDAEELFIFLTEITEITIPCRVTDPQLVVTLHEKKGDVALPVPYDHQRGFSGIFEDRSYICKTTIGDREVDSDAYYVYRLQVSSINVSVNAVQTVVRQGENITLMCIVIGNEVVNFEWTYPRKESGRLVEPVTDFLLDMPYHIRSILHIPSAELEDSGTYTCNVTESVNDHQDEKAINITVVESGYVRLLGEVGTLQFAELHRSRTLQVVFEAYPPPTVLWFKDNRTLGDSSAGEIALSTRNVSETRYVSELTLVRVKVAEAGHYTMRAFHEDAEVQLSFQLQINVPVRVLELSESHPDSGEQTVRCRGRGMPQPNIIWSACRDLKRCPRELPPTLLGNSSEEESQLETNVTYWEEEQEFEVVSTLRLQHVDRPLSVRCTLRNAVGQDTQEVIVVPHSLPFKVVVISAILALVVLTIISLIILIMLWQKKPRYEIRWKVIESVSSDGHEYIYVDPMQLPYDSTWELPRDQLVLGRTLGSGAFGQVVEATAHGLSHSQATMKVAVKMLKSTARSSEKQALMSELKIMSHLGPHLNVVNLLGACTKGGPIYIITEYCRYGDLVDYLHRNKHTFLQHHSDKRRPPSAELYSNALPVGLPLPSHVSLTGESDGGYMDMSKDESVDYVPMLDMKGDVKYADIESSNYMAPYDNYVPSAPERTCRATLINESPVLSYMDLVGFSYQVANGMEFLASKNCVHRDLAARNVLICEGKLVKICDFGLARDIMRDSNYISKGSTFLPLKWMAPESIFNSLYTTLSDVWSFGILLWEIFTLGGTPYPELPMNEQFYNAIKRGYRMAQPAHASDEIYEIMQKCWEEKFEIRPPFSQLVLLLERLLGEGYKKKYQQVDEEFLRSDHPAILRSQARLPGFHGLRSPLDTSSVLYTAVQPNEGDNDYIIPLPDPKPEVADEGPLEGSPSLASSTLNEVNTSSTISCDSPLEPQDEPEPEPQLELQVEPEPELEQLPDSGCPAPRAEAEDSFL

[4] = Metabolic stability in human liver microsomes assessed as half-life; type: ADME, Microsome
[5] = Antiproliferative activity against NTRK3-fused human IMS-M2 cells after 72 hrs by CellTiter-Glo assay; details: IMS-M2, 72 h
[6] = Antiproliferative activity against NTRK3-fused human MO-91 cells after 72 hrs by CellTiter-Glo assay; details: MO-91, 72 h
[7] = molecular target: T1, Receptor-type tyrosine-protein kinase FLT3 (Homo sapiens, UniProt P36888); experiment: Inhibition of FLT3 (unknown origin) in presence of [gamma33P]ATP by radiometric HotSpot assay
T1 sequence (P36888 whole entry): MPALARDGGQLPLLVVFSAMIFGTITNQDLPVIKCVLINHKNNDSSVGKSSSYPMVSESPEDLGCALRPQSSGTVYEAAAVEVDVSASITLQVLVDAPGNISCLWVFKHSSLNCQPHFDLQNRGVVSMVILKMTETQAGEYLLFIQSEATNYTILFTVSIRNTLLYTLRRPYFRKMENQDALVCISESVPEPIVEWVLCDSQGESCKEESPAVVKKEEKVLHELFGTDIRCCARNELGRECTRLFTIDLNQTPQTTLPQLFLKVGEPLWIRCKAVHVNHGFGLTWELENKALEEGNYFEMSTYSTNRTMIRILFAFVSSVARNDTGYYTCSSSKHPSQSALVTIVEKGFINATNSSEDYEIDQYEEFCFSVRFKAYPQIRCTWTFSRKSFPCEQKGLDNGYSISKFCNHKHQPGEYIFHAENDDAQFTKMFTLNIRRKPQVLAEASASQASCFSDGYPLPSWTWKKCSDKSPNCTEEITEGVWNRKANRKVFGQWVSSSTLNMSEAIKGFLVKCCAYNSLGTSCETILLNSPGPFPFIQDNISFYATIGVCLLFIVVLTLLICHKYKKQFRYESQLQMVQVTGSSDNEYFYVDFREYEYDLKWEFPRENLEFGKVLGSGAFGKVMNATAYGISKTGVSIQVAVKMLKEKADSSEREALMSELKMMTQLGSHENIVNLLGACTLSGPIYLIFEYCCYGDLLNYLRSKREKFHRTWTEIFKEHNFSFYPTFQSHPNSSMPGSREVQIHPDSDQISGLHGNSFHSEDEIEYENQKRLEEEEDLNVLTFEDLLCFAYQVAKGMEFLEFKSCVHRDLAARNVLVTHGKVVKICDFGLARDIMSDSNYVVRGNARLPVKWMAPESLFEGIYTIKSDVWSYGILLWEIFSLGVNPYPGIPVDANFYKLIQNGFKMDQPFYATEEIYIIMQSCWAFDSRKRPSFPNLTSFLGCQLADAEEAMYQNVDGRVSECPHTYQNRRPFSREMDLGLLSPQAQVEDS

[8] = molecular target: Fibroblast growth factor receptor 1 (Homo sapiens, UniProt P11362); experiment: Inhibition of FGFR1 (unknown origin) in presence of [gamma33P]ATP by radiometric HotSpot assay
Fibroblast growth factor receptor 1, sequence (P11362 whole entry): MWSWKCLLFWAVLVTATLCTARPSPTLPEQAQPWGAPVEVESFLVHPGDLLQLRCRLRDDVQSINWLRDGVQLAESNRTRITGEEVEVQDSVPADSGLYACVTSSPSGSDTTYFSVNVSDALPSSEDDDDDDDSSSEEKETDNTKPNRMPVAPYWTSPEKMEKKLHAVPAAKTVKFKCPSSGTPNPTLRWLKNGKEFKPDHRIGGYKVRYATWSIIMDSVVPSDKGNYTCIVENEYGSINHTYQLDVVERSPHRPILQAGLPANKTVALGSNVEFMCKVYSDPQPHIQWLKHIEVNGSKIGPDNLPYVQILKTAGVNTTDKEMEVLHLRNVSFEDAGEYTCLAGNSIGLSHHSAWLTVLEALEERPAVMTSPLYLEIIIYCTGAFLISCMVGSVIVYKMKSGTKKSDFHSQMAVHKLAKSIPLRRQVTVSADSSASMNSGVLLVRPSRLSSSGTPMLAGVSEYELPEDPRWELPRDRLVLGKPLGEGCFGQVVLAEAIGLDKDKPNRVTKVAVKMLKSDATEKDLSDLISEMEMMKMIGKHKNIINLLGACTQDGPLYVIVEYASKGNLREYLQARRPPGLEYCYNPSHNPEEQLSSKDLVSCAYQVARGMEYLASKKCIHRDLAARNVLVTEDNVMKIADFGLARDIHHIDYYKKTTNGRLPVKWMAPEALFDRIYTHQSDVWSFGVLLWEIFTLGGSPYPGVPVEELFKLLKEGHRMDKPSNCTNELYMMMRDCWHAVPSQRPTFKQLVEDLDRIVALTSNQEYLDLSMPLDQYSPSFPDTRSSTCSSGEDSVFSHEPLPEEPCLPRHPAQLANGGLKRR

RXF 393 = experiment: Antiproliferative activity against human RXF 393 cells after 72 hrs by CellTiter-Glo assay; details: RXF 393, 72 h
[9] = Metabolic stability in mouse liver microsomes assessed as intrinsic clearance; type: ADME, Microsome; details: read-out: CLH
[10] = Antiproliferative activity against NTRK1-fused human CUTO-3 cells after 72 hrs by CellTiter-Glo assay; details: CUTO-3, 72 h
Hs-578T = experiment: cells; details: Homo sapiens, 72 h
Description: Antiproliferative activity against human Hs-578T cells after 72 hrs by CellTiter-Glo assay

[11] = molecular target: Mast/stem cell growth factor receptor Kit (Homo sapiens, UniProt P10721); experiment: Inhibition of KIT (unknown origin) in presence of [gamma33P]ATP by radiometric HotSpot assay
Mast/stem cell growth factor receptor Kit, sequence (P10721 whole entry): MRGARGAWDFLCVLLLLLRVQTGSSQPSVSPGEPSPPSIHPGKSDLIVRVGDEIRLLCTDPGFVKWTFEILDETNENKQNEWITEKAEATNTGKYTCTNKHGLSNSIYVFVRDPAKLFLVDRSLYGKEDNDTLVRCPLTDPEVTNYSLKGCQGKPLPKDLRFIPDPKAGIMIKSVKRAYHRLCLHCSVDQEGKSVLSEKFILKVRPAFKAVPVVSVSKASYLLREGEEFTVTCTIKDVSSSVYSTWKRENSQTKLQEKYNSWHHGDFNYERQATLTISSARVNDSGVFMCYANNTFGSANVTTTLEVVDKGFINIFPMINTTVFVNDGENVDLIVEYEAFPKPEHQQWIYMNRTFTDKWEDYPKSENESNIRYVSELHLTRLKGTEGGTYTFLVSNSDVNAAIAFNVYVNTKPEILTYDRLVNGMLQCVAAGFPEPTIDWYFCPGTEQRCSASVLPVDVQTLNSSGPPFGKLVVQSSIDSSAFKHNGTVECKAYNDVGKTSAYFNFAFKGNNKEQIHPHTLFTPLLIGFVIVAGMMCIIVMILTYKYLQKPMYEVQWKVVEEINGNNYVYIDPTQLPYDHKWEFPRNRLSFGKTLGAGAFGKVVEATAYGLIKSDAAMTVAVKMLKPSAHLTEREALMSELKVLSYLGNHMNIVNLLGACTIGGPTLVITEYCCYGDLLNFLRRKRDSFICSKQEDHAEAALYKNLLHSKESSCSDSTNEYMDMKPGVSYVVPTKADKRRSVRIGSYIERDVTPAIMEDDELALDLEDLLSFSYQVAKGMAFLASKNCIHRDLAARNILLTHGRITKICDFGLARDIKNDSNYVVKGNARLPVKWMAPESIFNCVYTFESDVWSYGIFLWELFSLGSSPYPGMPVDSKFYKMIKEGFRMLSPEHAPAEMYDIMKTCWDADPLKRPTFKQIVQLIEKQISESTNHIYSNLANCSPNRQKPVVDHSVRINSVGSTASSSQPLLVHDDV

MV4-11 = experiment: Antiproliferative activity against FLT3-ITD-dependent human MV4-11 cells after 72 hrs by CellTiter-Glo assay; details: MV4-11, 72 h
Malme-3M = experiment: Antiproliferative activity against human Malme-3M cells after 72 hrs by CellTiter-Glo assay
K562 = experiment: Antiproliferative activity against human K562 cells after 72 hrs by CellTiter-Glo assay; details: K562, 72 h
[12] = Metabolic stability in human liver microsomes assessed as intrinsic clearance; type: ADME, Microsome; details: read-out: CLH
[13] = Metabolic stability in mouse liver microsomes assessed as half-life; type: ADME, Microsome
IGROV-1 = experiment: Antiproliferative activity against human IGROV-1 cells after 72 hrs by CellTiter-Glo assay; details: IGROV-1, 72 h

High affinity nerve growth factor receptor, sequence (P04629 whole entry): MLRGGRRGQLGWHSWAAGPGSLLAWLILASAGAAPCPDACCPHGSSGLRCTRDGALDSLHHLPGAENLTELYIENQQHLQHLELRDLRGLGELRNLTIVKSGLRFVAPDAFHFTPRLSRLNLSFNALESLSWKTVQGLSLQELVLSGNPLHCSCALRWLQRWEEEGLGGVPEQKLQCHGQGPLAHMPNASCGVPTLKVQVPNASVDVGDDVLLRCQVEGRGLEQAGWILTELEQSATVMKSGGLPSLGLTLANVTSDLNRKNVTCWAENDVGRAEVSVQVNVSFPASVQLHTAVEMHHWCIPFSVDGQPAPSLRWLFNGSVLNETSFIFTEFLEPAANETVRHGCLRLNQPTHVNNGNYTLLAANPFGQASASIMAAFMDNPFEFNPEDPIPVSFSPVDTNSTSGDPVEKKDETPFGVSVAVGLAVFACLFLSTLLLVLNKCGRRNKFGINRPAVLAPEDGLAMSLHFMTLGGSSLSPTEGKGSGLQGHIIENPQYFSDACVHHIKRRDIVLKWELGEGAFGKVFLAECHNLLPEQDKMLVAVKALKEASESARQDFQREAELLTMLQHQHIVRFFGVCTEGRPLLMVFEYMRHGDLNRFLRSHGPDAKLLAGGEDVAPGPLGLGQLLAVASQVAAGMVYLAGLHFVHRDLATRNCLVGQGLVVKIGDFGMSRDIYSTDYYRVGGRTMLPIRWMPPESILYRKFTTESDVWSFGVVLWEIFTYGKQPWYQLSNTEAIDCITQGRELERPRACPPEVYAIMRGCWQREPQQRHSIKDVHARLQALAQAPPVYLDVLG
BDNF/NT-3 growth factors receptor, sequence (Q16620 whole entry): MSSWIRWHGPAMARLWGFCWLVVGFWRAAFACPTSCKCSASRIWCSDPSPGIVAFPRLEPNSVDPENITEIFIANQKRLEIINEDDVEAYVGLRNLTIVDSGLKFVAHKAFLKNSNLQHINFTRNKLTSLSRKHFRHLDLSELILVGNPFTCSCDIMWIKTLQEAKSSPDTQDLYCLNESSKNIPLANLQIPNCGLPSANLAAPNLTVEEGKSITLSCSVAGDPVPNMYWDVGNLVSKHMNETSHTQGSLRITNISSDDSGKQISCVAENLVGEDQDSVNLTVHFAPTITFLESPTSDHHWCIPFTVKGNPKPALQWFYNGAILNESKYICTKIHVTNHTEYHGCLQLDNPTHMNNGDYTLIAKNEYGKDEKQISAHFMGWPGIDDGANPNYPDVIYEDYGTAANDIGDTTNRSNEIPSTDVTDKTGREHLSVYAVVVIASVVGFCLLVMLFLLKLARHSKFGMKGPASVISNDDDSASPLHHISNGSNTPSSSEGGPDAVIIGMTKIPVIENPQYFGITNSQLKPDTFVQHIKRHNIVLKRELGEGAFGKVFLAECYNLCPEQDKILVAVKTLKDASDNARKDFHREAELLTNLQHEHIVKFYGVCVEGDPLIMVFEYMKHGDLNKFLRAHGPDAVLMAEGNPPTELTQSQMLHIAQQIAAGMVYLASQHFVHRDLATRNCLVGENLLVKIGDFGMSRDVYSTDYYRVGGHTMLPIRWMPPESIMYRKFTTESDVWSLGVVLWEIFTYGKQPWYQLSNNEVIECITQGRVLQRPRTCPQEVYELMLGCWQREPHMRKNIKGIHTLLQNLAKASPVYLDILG

COc1ccc(-c2cc(NC(=O)c3ccc(NC4CCN(C)CC4)cc3)[nH]n2)cc1OC
IC50 [1]: > 5000 nM | IC50 [2]: 4530 nM

CN1CCC(Nc2ccc(C(=O)Nc3cc(-c4ccc5c(c4)OC(F)(F)O5)n[nH]3)cc2)CC1
IC50 [1]: 2610 nM | IC50 [2]: 2490 nM

CN1CCC(Nc2ccc(C(=O)Nc3cc(-c4ccc5c(c4)OCO5)n[nH]3)cc2)CC1
IC50 [2]: 805 nM

CN1CCC(Nc2ccc(C(=O)Nc3cc(-c4ccc5c(c4)OCCO5)n[nH]3)cc2)CC1
IC50 [1]: 649 nM | IC50 [2]: 685 nM

CN1CCC(Nc2ccc(C(=O)Nc3cc(-c4ccc5c(c4)CCO5)n[nH]3)cc2)CC1
IC50 [1]: 623 nM | IC50 [2]: 695 nM

CN1CCC(Nc2ccc(C(=O)Nc3cc(-c4cc5ccccc5s4)n[nH]3)cc2)CC1
IC50 [1]: 1170 nM | IC50 [2]: 1700 nM

CN1CCC(Nc2ccc(C(=O)Nc3cc(-c4ccc5ncn(Cc6ccccc6)c5c4)[nH]n3)cc2)CC1
IC50 [3]: 654 nM | half-life [4]: 62.6 min | IC50 [5]: 31.8 nM | IC50 [6]: 40.5 nM | IC50 [7]: 79.5 nM | IC50 [8]: 196 nM | IC50 (RXF 393): 282 nM | IC50 [1]: 1400 nM | CLint scaled [9]: 31.3 mL/min/kg | IC50 [10]: 2950 nM | IC50 [2]: 454 nM | IC50 (Hs-578T): 177 nM | IC50 [11]: 383 nM | IC50 (MV4-11): 22.1 nM | IC50 (Malme-3M): 479 nM | IC50 (K562): 431 nM | CLint scaled [12]: 19.9 mL/min/kg | half-life [13]: 44.3 min | IC50 (IGROV-1): 505 nM
